Some results are limits rather than exact numbers.

Broadly, the IC50 is the concentration at which inhibition is half-maximal.

The test system of one assay is cap-dependent translation in Flp-In-293 reporter cells. Kind of assay: Cellular cap-dependent translation inhibition assay (dual luciferase assay, DLA; Fluc/Rluc ratio, 24 hours). Type of assay: cell-based. The following applies: Homo sapiens, Flp-In-293, 24 h, dual luciferase assay, Flp-In-293 reporter cells, 24 hours, Fluc/Rluc ratio; read-out: DLA 205 IC50.
Turning to `Cc1cc(-c2cc(Cl)ccc2OCCn2c(C)nc3c(c2=O)CC(N(C)CCOC(F)(F)F)CC3)c2scc(C(=O)NS(C)(=O)=O)c2n1` (stereo not drawn) [Compound 55], the concentration for half-maximal inhibition (IC50) is below 1000 nM.
As to `Cc1cc(-c2cc(Cl)ccc2OCCn2c(C)nc3c(c2=O)CC(N(CC(F)(F)F)C2CCC2)CC3)c2scc(C(=O)O)c2n1` (stereo not drawn) [Compound 83], the 50% inhibitory concentration (IC50) is 1000 to 5000 nM.
On the same count and under the same terms, in the case of `Cc1nc2c(c(=O)n1CC#Cc1ccc(Cl)cc1-c1ccnc3c(C(=O)NS(C)(=O)=O)csc13)C[C@@H](N1CC[C@@H](F)C1)CC2` (single isomer, unassigned) [Compound 349] it was below 1000 nM; in that of `Cc1cc(-c2cc(Cl)ccc2OCCn2c(C)nc3c(c2=O)CC(N2CCC(F)(F)CC2)CC3)c2scc(C(=O)NS(C)(=O)=O)c2n1` (single isomer, unassigned) [Compound 251], below 1000 nM; in that of `COC1CCN(C2CCc3nc(C)n(CCOc4ccc(Cl)cc4-c4cc(C)nc5c(C(=O)O)csc45)c(=O)c3C2)CC1` (stereo not drawn) [Compound 12], below 1000 nM.
On the same count and under the same terms, then `Cc1nc2c(c(=O)n1CC#Cc1ccc(Cl)cc1-c1ccnc3c(C(=O)O)csc13)C[C@@H](N1CC[C@H](F)C1)CC2` (single isomer, unassigned) [Compound 293], with below 1000 nM; and `Cc1cc(-c2cc(Cl)ccc2OCCn2c(C)nc3c(c2=O)CC(N(C)C24CC(C)(C2)C4(F)F)CC3)c2scc(C(=O)O)c2n1` (stereo not drawn) [Compound 318], with 1000 to 5000 nM.
The same measure, in the same setting: then `Cc1cc(-c2cc(Cl)ccc2OCCn2c(C)nc3c(c2=O)CC(N(C)C2CC24CCC4)CC3)c2scc(C(=O)O)c2n1` (stereo not drawn) [Compound 262], with below 1000 nM; and `Cc1cc(-c2cc(Cl)ccc2OCCn2c(C)nc3c(c2=O)CC(N(C)CC2CC(F)(F)C2)CC3)c2scc(C(=O)NS(C)(=O)=O)c2n1` (single isomer, unassigned) [Compound 256], with below 1000 nM; and `Cc1cc(-c2cc(Cl)ccc2OCCn2c(C)nc3c(c2=O)CC(N(C)CC2(C)COC2)CC3)c2scc(C(=O)NS(C)(=O)=O)c2n1` (single isomer, unassigned) [Compound 304], with below 1000 nM.
`Cc1cc(-c2cc(Cl)ccc2OCCn2c(C)nc3c(c2=O)CC(N(C)C(=O)C2CN(C)C2)CC3)c2scc(C(=O)O)c2n1` (stereo not drawn) [Compound 73]: the IC50 is above 5000 nM.
On the same count and under the same terms, then `Cc1cc(-c2cc(Cl)ccc2OCCn2c(C)nc3c(c2=O)CC(N(C)C2CCC2)CC3)c2scc(C(=O)O)c2n1` (stereo not drawn) [Compound 91], with below 1000 nM; and `Cc1cc(-c2cc(Cl)ccc2OCCn2c(C)nc3c(c2=O)C[C@H](N2CCC[C@H](F)C2)CC3)c2scc(C(=O)O)c2n1` (single isomer, unassigned) [Compound 283], with below 1000 nM; and `CO[C@H]1CCN([C@H]2CCc3nc(C)n(CCOc4ccc(Cl)cc4-c4cc(C)nc5c(C(=O)O)csc45)c(=O)c3C2)C1` (single isomer, unassigned) [Compound 44], with below 1000 nM.
Still for that read-out and setting: in the case of `Cc1cc(-c2cc(Cl)ccc2OCCn2c(C)nc3c(c2=O)CC(N2CC(F)C2)CC3)c2scc(C(=O)NS(C)(=O)=O)c2n1` (single isomer, unassigned) [Compound 342] it was below 1000 nM.

The target of the next assay is T1, human eIF4E protein (Homo sapiens, UniProt P06730).
T1 construct: purchased Novus NBP-45314
T1 sequence (P06730 whole entry): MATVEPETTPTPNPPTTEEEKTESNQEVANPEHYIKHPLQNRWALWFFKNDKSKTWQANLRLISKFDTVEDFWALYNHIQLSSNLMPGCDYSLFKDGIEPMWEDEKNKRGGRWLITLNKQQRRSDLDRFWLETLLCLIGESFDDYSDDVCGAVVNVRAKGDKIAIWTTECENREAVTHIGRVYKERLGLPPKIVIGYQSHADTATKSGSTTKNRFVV
As to the kind of experiment: Biochemical competitive binding assay (TR-FRET competition, EDA-m7GDP-ATTO-647N probe). The following applies: read-out: hEIF4E TR-FRET IC50. The method, boiled down: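 IC50 values come from 4-parameter fits of the normalized 665/620 nm TR-FRET ratio. Compound was first incubated 15 min with 4 nM recombinant His-eIF4E bound to 2.5 nM Eu-anti-His antibody, then 15 min with 5 nM m7GDP-ATTO-647N tracer, in pH 7.5 HEPES buffer with 100 mM KCl, Tween-20 and BSA.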
With `Cc1cc(-c2cc(Cl)ccc2OCCn2c(C)nc3c(c2=O)CC(N(C)CCOC(F)(F)F)CC3)c2scc(C(=O)NS(C)(=O)=O)c2n1` (stereo not drawn) [Compound 55], the IC50 was below 100 nM.
On the same count and under the same terms, then `Cc1cc(-c2cc(Cl)ccc2OCCn2c(C)nc3c(c2=O)CC(N(CC(F)(F)F)C2CCC2)CC3)c2scc(C(=O)O)c2n1` (stereo not drawn) [Compound 83], with below 100 nM; and `Cc1nc2c(c(=O)n1CC#Cc1ccc(Cl)cc1-c1ccnc3c(C(=O)NS(C)(=O)=O)csc13)C[C@@H](N1CC[C@@H](F)C1)CC2` (single isomer, unassigned) [Compound 349], with below 100 nM; and `Cc1cc(-c2cc(Cl)ccc2OCCn2c(C)nc3c(c2=O)CC(N2CCC(F)(F)CC2)CC3)c2scc(C(=O)NS(C)(=O)=O)c2n1` (single isomer, unassigned) [Compound 251], with below 100 nM.
Consider `COC1CCN(C2CCc3nc(C)n(CCOc4ccc(Cl)cc4-c4cc(C)nc5c(C(=O)O)csc45)c(=O)c3C2)CC1` (stereo not drawn) [Compound 12], for which the 50% inhibitory concentration (IC50) was below 100 nM.
In the case of `Cc1nc2c(c(=O)n1CC#Cc1ccc(Cl)cc1-c1ccnc3c(C(=O)O)csc13)C[C@@H](N1CC[C@H](F)C1)CC2` (single isomer, unassigned) [Compound 293], the IC50 is below 100 nM.
Turning to `Cc1cc(-c2cc(Cl)ccc2OCCn2c(C)nc3c(c2=O)CC(N(C)C24CC(C)(C2)C4(F)F)CC3)c2scc(C(=O)O)c2n1` (stereo not drawn) [Compound 318], the IC50 is below 100 nM.
On the same count and under the same terms, in the case of `Cc1cc(-c2cc(Cl)ccc2OCCn2c(C)nc3c(c2=O)CC(N(C)C2CC24CCC4)CC3)c2scc(C(=O)O)c2n1` (stereo not drawn) [Compound 262] it was below 100 nM; in that of `Cc1cc(-c2cc(Cl)ccc2OCCn2c(C)nc3c(c2=O)CC(N(C)CC2CC(F)(F)C2)CC3)c2scc(C(=O)NS(C)(=O)=O)c2n1` (single isomer, unassigned) [Compound 256], below 100 nM.
For `Cc1cc(-c2cc(Cl)ccc2OCCn2c(C)nc3c(c2=O)CC(N(C)CC2(C)COC2)CC3)c2scc(C(=O)NS(C)(=O)=O)c2n1` (single isomer, unassigned) [Compound 304], the IC50 was below 100 nM.
The same measure, in the same setting: in the case of `Cc1cc(-c2cc(Cl)ccc2OCCn2c(C)nc3c(c2=O)CC(N(C)C(=O)C2CN(C)C2)CC3)c2scc(C(=O)O)c2n1` (stereo not drawn) [Compound 73] it was below 100 nM; in that of `Cc1cc(-c2cc(Cl)ccc2OCCn2c(C)nc3c(c2=O)CC(N(C)C2CCC2)CC3)c2scc(C(=O)O)c2n1` (stereo not drawn) [Compound 91], below 100 nM; in that of `Cc1cc(-c2cc(Cl)ccc2OCCn2c(C)nc3c(c2=O)C[C@H](N2CCC[C@H](F)C2)CC3)c2scc(C(=O)O)c2n1` (single isomer, unassigned) [Compound 283], below 100 nM.
`CO[C@H]1CCN([C@H]2CCc3nc(C)n(CCOc4ccc(Cl)cc4-c4cc(C)nc5c(C(=O)O)csc45)c(=O)c3C2)C1` (single isomer, unassigned) [Compound 44]: the half-maximal inhibitory concentration (IC50) was below 100 nM.
For the molecule `Cc1cc(-c2cc(Cl)ccc2OCCn2c(C)nc3c(c2=O)CC(N2CC(F)C2)CC3)c2scc(C(=O)NS(C)(=O)=O)c2n1` (single isomer, unassigned) [Compound 342], the concentration for half-maximal inhibition (IC50) was below 100 nM.

In a further assay the test system is COLO 205 colorectal tumor cells. As to the kind of experiment: Tumor cell viability inhibition assay (CellTiter-Glo 2.0, 72 hours). The class given is cell-based. The following applies: Homo sapiens, COLO 205, 72 h, COLO 205 cell viability. The procedure, abridged: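 IC50 derived by 4-parameter fitting after normalizing luminescence to DMSO and max-inhibition wells. Compounds tested as 11 concentrations in 4-fold steps on COLO 205 cells seeded at 1500 per well in RPMI-1640/10% FBS; ATP content measured with CellTiter-Glo 2.0 after 72 h.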
A general note: Cellular ATP, detected with luciferase, serves as a proxy for viable cell number.
`Cc1cc(-c2cc(Cl)ccc2OCCn2c(C)nc3c(c2=O)CC(N(C)CCOC(F)(F)F)CC3)c2scc(C(=O)NS(C)(=O)=O)c2n1` (stereo not drawn) [Compound 55] gave an IC50 below 5000 nM.
Consider `Cc1cc(-c2cc(Cl)ccc2OCCn2c(C)nc3c(c2=O)CC(N(CC(F)(F)F)C2CCC2)CC3)c2scc(C(=O)O)c2n1` (stereo not drawn) [Compound 83], for which the 50% inhibitory concentration (IC50) is 5000 to 20000 nM.
On the same count and under the same terms, in the case of `Cc1nc2c(c(=O)n1CC#Cc1ccc(Cl)cc1-c1ccnc3c(C(=O)NS(C)(=O)=O)csc13)C[C@@H](N1CC[C@@H](F)C1)CC2` (single isomer, unassigned) [Compound 349] it was below 5000 nM.
Still for that read-out and setting: then `Cc1cc(-c2cc(Cl)ccc2OCCn2c(C)nc3c(c2=O)CC(N2CCC(F)(F)CC2)CC3)c2scc(C(=O)NS(C)(=O)=O)c2n1` (single isomer, unassigned) [Compound 251], with below 5000 nM.
On the same count and under the same terms, then `COC1CCN(C2CCc3nc(C)n(CCOc4ccc(Cl)cc4-c4cc(C)nc5c(C(=O)O)csc45)c(=O)c3C2)CC1` (stereo not drawn) [Compound 12], with below 5000 nM; and `Cc1nc2c(c(=O)n1CC#Cc1ccc(Cl)cc1-c1ccnc3c(C(=O)O)csc13)C[C@@H](N1CC[C@H](F)C1)CC2` (single isomer, unassigned) [Compound 293], with below 5000 nM.
`Cc1cc(-c2cc(Cl)ccc2OCCn2c(C)nc3c(c2=O)CC(N(C)C24CC(C)(C2)C4(F)F)CC3)c2scc(C(=O)O)c2n1` (stereo not drawn) [Compound 318] displayed an IC50 of 5000 to 20000 nM.
Turning to `Cc1cc(-c2cc(Cl)ccc2OCCn2c(C)nc3c(c2=O)CC(N(C)C2CC24CCC4)CC3)c2scc(C(=O)O)c2n1` (stereo not drawn) [Compound 262], the 50% inhibitory concentration (IC50) was below 5000 nM.
Still for that read-out and setting: in the case of `Cc1cc(-c2cc(Cl)ccc2OCCn2c(C)nc3c(c2=O)CC(N(C)CC2CC(F)(F)C2)CC3)c2scc(C(=O)NS(C)(=O)=O)c2n1` (single isomer, unassigned) [Compound 256] it was below 5000 nM; in that of `Cc1cc(-c2cc(Cl)ccc2OCCn2c(C)nc3c(c2=O)CC(N(C)CC2(C)COC2)CC3)c2scc(C(=O)NS(C)(=O)=O)c2n1` (single isomer, unassigned) [Compound 304], 5000 to 20000 nM.
On the same count and under the same terms, in the case of `Cc1cc(-c2cc(Cl)ccc2OCCn2c(C)nc3c(c2=O)CC(N(C)C(=O)C2CN(C)C2)CC3)c2scc(C(=O)O)c2n1` (stereo not drawn) [Compound 73] it was above 20000 nM; in that of `Cc1cc(-c2cc(Cl)ccc2OCCn2c(C)nc3c(c2=O)CC(N(C)C2CCC2)CC3)c2scc(C(=O)O)c2n1` (stereo not drawn) [Compound 91], below 5000 nM.
Still for that read-out and setting: in the case of `Cc1cc(-c2cc(Cl)ccc2OCCn2c(C)nc3c(c2=O)C[C@H](N2CCC[C@H](F)C2)CC3)c2scc(C(=O)O)c2n1` (single isomer, unassigned) [Compound 283] it was below 5000 nM.
`CO[C@H]1CCN([C@H]2CCc3nc(C)n(CCOc4ccc(Cl)cc4-c4cc(C)nc5c(C(=O)O)csc45)c(=O)c3C2)C1` (single isomer, unassigned) [Compound 44] registered an IC50 below 5000 nM.
`Cc1cc(-c2cc(Cl)ccc2OCCn2c(C)nc3c(c2=O)CC(N2CC(F)C2)CC3)c2scc(C(=O)NS(C)(=O)=O)c2n1` (single isomer, unassigned) [Compound 342] yielded an IC50 below 5000 nM.

(Values after patent US20240246918A1, “COMPOUNDS AND COMPOSITIONS AS EIF4E INHIBITORS AND THE USES THEREOF” (Ribometrix, Inc., priority 2022, published 2024).)
